# Results as given in patent publication US5310757A, “3,3,5-trimethylcyclohexyl 2-methylpropionate derivatives, their method of preparation and therapeutic compositions in which they are present” (Panmedica, priority 1989, dated 1994).
# pIC50: −log10 of the molar value.
# Tests used:
# [1] = molecular target: T1, 3-hydroxy-3-methylglutaryl-CoA reductase (Rattus norvegicus, UniProt P51639); test: inhibition of 3-hydroxy-3-methylglutaryl-CoA reductase activity (method of Kuroda et al.); type: biochemical; conditions: concentration for 50% inhibition of 3-hydroxy-3-methylglutaryl-CoA reductase activity
# T1 construct: from tissue
# T1 sequence (P51639 1-887): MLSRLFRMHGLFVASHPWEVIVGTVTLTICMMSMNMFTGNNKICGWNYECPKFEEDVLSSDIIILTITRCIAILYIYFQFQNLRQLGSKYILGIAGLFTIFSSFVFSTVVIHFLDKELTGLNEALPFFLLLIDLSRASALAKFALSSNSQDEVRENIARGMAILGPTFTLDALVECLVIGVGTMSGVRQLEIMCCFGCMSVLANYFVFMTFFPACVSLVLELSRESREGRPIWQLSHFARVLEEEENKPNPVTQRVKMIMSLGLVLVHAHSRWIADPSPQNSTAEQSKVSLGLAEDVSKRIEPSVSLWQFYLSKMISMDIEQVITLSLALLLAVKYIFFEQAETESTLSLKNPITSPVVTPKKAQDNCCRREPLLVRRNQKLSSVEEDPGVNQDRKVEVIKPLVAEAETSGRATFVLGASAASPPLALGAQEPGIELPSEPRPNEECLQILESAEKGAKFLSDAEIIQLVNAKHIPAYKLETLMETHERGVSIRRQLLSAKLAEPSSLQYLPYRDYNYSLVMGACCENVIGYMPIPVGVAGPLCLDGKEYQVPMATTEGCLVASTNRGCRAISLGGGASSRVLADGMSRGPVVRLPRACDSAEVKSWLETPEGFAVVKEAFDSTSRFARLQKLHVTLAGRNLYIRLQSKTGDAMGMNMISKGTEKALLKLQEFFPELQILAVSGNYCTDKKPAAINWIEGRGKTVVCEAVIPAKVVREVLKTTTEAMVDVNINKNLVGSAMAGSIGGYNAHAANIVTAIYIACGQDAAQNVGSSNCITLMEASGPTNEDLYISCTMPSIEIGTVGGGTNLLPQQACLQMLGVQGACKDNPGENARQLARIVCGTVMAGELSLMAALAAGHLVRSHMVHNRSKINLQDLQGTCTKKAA
# Experimental: The biosynthesis of cholesterol in an isolated enzymatic system or in a cell culture from organs removed from experimental animals is inhibited by limiting the activity of the enzyme 3-hydroxy-3-methylglutaryl-CoA reductase.
# The inhibitory activity of the products according to the present invention was determined by the method of Kuroda et al. (Biochemica et Biophysica Acta, vol. 486, pp. 70-81 (1977)), which is a modification of the method of Shapiro et al. (Analytical Biochemistry, vol. 31, pp. 383-390 (1969)). The results are summarized in Table II, where IC50 is the concentration of product in the experimental medium which is necessary to achieve a 50% inhibition of the 3-hydroxy-3-methylglutaryl-CoA reductase activity, expressed in nanomol.
# [2] = tested on: HMG-CoA red.; test: HMG-CoA red. activity "ex vivo" in liver microsomes after chronic intraperitoneal administration to rats; set-up: Mevalonate formed: unit not given here; conditions: 50 mg/kg for 6 days; for Mevalonate formed: Control 17; for % inhibition: inhibition of HMG-CoA red. activity, Control 0
# Experimental: The inhibitory activity of the products according to the present invention was determined by the method of Kuroda et al. (Biochemica et Biophysica Acta, vol. 486, pp. 70-81 (1977)), which is a modification of the method of Shapiro et al. (Analytical Biochemistry, vol. 31, pp. 383-390 (1969)). […] The doses administered were 50 mg/kg for 6 days; six rats were used in each series; they are sacrificed without anaesthesia and the liver microsomes are isolated for the assay, which is performed according to the above-mentioned protocol.
# [3] = tested on: hyperlipidaemia caused by TRITON 1339; test: test for the hyperlipidaemia caused by TRITON 1339; type: in vivo; conditions: rats, Triton test after oral administration for six days, 0.5 millimol per kilogram; for HDL cholesterol: Control 0.7 ± 0.1, Triton 0.8 ± 0.1; for Triglycerides: Control 1 ± 0.3, Triton 10 ± 7; for Total cholesterol: Control 2 ± 0.15, Triton 9 ± 3; for Total lipids: Control 3.5 ± 0.4, Triton 20 ± 10
# Experimental: The Table below summarizes the results of the pharmacological studies carried out especially by means of the test for the hyperlipidaemia caused by TRITON 1339. The experimental protocol was that published by J. C. […] et al. (Gaz. Med. France, 3rd inter. coll. 1982, Dijon, 18-22). The tests are performed on groups of 7 rats weighing from 280 to 290 g. The Triton test is carried out after oral administration for six days at a rate of 0.5 millimol per kilogram of body weight. The following lipid parameters are measured: total cholesterol, triglycerides, total lipids and HDL cholesterol.
SMILES,pIC50 [1],Mevalonate formed [2],% inhibition [2],HDL cholesterol [3],Triglycerides [3],Total cholesterol [3],Total lipids [3]
"Cc1ccc(C)c(OCCCC(C)(C)C(=O)O[C@H]2C[C@@H](C)CC(C)(C)C2)c1 (relative stereo) [Example 5, (CIS) 3,3,5-TRIMETHYLCYCLOHEXYL 2-(3-(2,5-DIMETHYLPHENOXY)PROPYL)-2-METHYLPROPIONATE]",7.52,6.71,60%,1.0 ± 0.3 mmol/L,2.0 ± 0.3 mmol/L,5.0 ± 0.8 mmol/L,3.0 ± 0.4 g/L
"C[C@H]1C[C@H](OC(=O)C(C)(C)Oc2ccc(-c3ccccc3)cc2)CC(C)(C)C1 (relative stereo) [Example 7, (TRANS) 3,3,5-TRIMETHYLCYCLOHEXYL 2-(4-PHENYLPHENOXY)-2-METHYLPROPIONATE]",7.37,–,–,1.5 ± 0.4 mmol/L,1.1 ± 0.5 mmol/L,2.2 ± 0.4 mmol/L,3.0 ± 0.5 g/L
"C[C@@H]1C[C@H](OC(=O)C(C)(C)Oc2ccc(C(=O)c3ccc(Cl)cc3)cc2)CC(C)(C)C1 (relative stereo) [Example 2, (CIS) 3,3,5-TRIMETHYLCYCLOHEXYL 2-(4-(4-CHLOROBENZOYL)PHENOXY)-2-METHYLPROPIONATE]",7.43,7.3,57%,2.1 ± 0.5 mmol/L,0.5 ± 0.15 mmol/L,3.0 ± 0.4 mmol/L,3.6 ± 0.2 g/L
